Measurements taken from paper PMC5564600 (Oncotarget, 2017).

What was measured:
Assay in all cases: biochemical
Assay type in all cases: binding
[1] = biological target: T1, panel of 442 kinases (Homo sapiens, UniProt Q8WTQ7); settings: kinase GRK7; for remaining activity at 1 µM: read-out: % of control at 1 µM
T1 construct: purchased Ambit Biosciences (scanMAXX KINOMEscan)
T1 sequence (Q8WTQ7 1-553): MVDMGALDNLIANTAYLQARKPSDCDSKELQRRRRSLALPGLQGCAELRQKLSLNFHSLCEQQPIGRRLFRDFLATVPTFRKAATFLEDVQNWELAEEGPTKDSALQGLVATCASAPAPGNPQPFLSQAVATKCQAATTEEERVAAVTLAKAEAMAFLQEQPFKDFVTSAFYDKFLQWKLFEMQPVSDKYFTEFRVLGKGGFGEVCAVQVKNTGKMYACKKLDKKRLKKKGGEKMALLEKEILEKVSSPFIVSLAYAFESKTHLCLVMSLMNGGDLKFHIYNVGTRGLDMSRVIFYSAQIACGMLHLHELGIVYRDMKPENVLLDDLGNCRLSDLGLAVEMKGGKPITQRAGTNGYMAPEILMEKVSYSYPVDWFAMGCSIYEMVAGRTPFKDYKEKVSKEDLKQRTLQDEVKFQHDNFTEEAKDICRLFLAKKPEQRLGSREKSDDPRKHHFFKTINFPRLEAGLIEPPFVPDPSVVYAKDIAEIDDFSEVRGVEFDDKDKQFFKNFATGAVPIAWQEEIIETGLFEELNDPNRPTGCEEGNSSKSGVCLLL

[2] = biological target: T2, panel of 442 kinases (Homo sapiens, UniProt P49674); settings: CSNK1E; for remaining activity at 1 µM: read-out: % of control at 1 µM
T2 construct: purchased Ambit Biosciences (scanMAXX KINOMEscan)

[3] = biological target: T3, panel of 442 kinases (Homo sapiens, UniProt Q15139); settings: kinase PRKD1; for remaining activity at 1 µM: read-out: PRKD1 (% of control at 1 µM)
T3 construct: purchased Ambit Biosciences (scanMAXX KINOMEscan)
T3 sequence (Q15139 1-912): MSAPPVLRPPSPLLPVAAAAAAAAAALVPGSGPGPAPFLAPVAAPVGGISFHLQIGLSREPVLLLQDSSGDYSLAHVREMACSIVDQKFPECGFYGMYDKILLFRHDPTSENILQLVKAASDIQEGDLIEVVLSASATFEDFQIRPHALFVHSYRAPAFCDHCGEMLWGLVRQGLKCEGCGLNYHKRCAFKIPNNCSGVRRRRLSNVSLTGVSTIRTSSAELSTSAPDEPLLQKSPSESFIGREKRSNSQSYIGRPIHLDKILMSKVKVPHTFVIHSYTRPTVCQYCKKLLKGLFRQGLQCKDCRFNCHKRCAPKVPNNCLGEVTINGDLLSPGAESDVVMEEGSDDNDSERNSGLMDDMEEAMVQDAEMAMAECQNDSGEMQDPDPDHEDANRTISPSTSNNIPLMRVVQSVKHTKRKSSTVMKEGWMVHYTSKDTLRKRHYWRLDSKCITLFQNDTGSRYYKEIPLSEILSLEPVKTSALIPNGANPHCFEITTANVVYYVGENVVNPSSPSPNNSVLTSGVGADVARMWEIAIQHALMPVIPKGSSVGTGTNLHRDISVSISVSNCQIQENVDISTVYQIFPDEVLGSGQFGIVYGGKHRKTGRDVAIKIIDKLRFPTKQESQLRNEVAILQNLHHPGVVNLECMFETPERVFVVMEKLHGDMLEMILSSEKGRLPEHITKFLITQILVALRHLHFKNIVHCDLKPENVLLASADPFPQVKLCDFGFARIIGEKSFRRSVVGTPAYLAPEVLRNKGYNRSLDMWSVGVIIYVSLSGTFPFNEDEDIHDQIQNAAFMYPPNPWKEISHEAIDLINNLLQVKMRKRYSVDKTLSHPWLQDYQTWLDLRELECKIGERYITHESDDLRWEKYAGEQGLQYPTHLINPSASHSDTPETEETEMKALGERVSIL

[4] = biological target: T4, panel of 442 kinases (Homo sapiens, UniProt P36888, R834Q); settings: kinase FLT3(R834Q); for remaining activity at 1 µM: read-out: % of control at 1 µM
T4 construct: purchased Ambit Biosciences (scanMAXX KINOMEscan)
T4 sequence (P36888 27-993 R834Q): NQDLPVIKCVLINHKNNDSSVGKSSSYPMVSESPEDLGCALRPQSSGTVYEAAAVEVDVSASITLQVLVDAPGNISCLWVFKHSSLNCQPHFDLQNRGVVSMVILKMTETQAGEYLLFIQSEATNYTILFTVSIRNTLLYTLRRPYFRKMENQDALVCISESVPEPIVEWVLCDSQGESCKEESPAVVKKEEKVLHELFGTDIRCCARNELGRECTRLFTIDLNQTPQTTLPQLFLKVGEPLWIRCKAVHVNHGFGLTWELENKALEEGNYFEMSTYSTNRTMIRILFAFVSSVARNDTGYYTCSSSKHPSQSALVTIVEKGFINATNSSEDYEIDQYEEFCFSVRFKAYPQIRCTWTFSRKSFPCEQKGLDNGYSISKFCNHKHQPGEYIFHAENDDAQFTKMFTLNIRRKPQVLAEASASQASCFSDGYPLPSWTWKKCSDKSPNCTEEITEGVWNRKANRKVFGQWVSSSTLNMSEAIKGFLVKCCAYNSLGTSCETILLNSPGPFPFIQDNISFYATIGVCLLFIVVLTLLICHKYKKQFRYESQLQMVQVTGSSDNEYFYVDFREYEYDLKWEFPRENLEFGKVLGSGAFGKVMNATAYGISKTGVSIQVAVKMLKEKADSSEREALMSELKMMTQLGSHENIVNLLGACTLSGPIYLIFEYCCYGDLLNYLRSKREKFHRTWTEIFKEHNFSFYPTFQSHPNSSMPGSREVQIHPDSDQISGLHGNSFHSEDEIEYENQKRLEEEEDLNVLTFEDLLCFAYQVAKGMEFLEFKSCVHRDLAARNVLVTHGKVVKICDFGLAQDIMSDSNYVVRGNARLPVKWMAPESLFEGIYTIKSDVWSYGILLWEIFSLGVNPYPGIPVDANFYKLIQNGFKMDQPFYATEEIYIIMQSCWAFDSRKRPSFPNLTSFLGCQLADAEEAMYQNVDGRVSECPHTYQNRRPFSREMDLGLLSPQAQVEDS

[5] = biological target: T5, panel of 442 kinases (Homo sapiens, UniProt P07947); settings: kinase YES; for remaining activity at 1 µM: read-out: YES (% of control at 1 µM)
T5 construct: purchased Ambit Biosciences (scanMAXX KINOMEscan)

[6] = biological target: T6, panel of 442 kinases (Homo sapiens, UniProt P16591); settings: FER; for remaining activity at 1 µM: read-out: % of control at 1 µM
T6 construct: purchased Ambit Biosciences (scanMAXX KINOMEscan)

[7] = biological target: T7, panel of 442 kinases (Homo sapiens, UniProt P48736); settings: kinase PIK3CG; 1 µM; read-out: % of control at 1 µM
T7 construct: purchased Ambit Biosciences (scanMAXX KINOMEscan)

[8] = 10 µM, read-out: % of control at 10 µM

T6 sequence (P16591 whole entry): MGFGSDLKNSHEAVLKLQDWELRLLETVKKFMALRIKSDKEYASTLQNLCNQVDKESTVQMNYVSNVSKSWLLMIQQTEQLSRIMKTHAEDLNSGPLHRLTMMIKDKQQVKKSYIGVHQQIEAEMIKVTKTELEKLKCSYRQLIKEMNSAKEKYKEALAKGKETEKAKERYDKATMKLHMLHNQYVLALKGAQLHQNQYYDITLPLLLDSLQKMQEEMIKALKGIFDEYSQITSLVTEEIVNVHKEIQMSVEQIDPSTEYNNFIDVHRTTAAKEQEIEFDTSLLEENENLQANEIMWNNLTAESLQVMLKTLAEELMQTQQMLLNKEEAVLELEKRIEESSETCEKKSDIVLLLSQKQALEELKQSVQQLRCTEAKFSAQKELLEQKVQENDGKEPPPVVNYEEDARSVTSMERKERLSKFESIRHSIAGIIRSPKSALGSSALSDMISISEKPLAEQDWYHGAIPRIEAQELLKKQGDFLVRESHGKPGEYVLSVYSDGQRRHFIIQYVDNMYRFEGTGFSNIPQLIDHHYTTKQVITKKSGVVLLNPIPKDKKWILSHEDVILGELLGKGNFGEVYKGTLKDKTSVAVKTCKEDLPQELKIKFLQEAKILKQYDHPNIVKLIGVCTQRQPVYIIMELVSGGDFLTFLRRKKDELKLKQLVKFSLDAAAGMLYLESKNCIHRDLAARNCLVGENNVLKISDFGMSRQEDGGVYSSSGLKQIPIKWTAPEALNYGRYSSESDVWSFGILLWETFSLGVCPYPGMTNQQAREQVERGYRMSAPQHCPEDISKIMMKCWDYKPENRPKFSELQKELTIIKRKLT
T5 sequence (P07947 whole entry): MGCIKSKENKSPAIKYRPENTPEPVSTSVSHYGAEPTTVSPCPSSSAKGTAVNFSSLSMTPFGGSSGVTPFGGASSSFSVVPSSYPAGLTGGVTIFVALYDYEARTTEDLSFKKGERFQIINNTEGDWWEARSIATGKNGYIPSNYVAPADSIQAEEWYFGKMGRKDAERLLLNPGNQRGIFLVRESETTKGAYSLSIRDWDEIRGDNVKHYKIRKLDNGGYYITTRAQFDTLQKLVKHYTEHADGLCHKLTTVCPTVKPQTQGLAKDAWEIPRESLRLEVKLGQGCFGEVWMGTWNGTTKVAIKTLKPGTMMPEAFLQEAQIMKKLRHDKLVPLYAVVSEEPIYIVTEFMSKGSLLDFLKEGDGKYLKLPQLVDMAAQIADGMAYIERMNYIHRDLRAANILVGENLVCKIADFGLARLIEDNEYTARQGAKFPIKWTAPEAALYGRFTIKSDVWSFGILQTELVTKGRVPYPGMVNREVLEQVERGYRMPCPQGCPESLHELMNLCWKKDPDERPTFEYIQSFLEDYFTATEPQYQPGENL
T2 sequence (P49674 whole entry): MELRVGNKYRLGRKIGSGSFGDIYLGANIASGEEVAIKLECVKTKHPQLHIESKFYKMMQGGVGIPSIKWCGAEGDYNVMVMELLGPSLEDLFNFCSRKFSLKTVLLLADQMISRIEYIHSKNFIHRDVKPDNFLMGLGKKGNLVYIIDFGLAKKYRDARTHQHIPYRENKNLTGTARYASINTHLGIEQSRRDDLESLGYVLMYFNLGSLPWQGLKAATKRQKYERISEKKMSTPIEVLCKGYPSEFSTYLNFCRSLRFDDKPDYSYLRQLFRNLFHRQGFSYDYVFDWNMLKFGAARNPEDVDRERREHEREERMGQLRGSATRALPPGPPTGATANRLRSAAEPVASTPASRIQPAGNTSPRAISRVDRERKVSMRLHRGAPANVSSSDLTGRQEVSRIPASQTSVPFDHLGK
T7 sequence (P48736 whole entry): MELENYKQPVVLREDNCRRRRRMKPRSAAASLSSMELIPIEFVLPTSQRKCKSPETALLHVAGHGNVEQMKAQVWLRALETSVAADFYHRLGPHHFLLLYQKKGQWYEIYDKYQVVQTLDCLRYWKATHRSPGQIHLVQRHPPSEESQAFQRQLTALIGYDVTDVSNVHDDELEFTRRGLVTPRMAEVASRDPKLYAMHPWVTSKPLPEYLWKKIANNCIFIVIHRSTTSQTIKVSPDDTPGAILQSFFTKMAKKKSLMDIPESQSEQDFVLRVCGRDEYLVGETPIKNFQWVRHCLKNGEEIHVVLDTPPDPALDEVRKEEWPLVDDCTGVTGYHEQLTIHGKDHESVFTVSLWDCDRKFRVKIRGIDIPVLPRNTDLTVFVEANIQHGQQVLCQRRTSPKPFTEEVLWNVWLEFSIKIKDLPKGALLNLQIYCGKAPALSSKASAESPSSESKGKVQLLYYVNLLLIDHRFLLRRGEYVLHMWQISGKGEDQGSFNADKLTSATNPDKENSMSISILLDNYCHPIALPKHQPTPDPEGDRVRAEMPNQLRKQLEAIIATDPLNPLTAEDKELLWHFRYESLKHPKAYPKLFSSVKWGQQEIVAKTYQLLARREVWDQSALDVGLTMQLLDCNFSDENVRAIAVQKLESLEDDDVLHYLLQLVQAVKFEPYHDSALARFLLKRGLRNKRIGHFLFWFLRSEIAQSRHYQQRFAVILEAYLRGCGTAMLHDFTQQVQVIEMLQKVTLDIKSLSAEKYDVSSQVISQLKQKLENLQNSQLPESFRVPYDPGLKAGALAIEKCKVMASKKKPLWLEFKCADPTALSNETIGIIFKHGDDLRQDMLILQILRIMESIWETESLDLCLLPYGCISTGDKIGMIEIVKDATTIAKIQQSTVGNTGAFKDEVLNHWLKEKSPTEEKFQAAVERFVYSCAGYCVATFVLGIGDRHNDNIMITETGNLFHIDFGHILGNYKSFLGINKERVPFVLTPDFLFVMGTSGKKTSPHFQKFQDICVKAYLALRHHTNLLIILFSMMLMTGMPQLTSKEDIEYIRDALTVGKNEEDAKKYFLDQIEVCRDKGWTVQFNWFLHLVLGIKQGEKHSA

SMILES	remaining activity at 1 µM [1] [%]	remaining activity at 10 µM [1, 8] [%]	remaining activity at 1 µM [2] [%]	remaining activity at 10 µM [2, 8] [%]	remaining activity at 1 µM [3] [%]	remaining activity at 10 µM ([3]; 10 µM, read-out: PRKD1 (% of control at 10 µM)) [%]	remaining activity at 1 µM [4] [%]	remaining activity at 10 µM [4, 8] [%]	remaining activity at 1 µM [5] [%]	remaining activity at 10 µM ([5]; 10 µM, read-out: YES (% of control at 10 µM)) [%]	remaining activity at 1 µM [6] [%]	remaining activity at 10 µM [6, 8] [%]	remaining activity at 1 µM [7] [%]
Nc1cc(C(F)(F)F)c(-c2cc(N3CCOCC3)nc(N3CCOCC3)n2)cn1 [Buparlisib]	77	100	100	72	100	100	100	100	100	100	100	100	
Cn1c(=O)n(-c2ccc(C(C)(C)C#N)cc2)c2c3cc(-c4cnc5ccccc5c4)ccc3ncc21 [Dactolisib, 2-methyl-2-[4-(3-methyl-2-oxo-8-quinolin-3-yl-2,3-dihydroimidazo[4,5-c]quinolin-1-yl)-phenyl] propionitrile]	92		54		100				100		60		38
COc1ncc(-c2ccc3nccc(-c4ccnnc4)c3c2)cc1NS(=O)(=O)c1ccc(F)cc1F [Omipalisib]	100		100		100		100		100		100		0
FC(F)c1nc2ccccc2n1-c1nc(N2CCOCC2)nc(N2CCOCC2)n1 [ZSTK474, 2-(difluoromethyl)-1-[4,6-di(4-morpholinyl)-1,3,5-triazin-2-yl]-1H-benzimidazole]	98		100		100		100		100		55		0
